Assay [1] concerns HL-60. In words: Inhibition of human P38delta/P38gamma in HL-60 cells lysate assessed as reduction of labeling of acyl-phosphate ATP probe at 100 nM.
Assay [2] addresses Glycogen synthase kinase-3 beta (Homo sapiens, UniProt P49841). In words: Inhibition of GSK3-beta.
The target in assay [3] is Cyclin-dependent kinase 13 (Homo sapiens) (UniProt Q14004). Nature of the assay: Inhibition of human CHED in HL-60 cells lysate assessed as reduction of labeling of acyl-phosphate ATP probe at 100 nM. In kind it is cell-free.
For assay [4], the system named is HL-60. In words: Inhibition of human AurA/AurB/AurC in HL-60 cells lysate assessed as reduction of labeling of acyl-phosphate ATP probe at 100 nM.
Assay [5] has as its target Tyrosine-protein kinase BTK (Homo sapiens) (UniProt Q06187). Nature of the assay: Inhibition of human BTK in HL-60 cells lysate assessed as reduction of labeling of acyl-phosphate ATP probe at 100 nM. In kind it is cell-free.
Assay [6] concerns the target T1, Dual specificity mitogen-activated protein kinase kinase 3 (Homo sapiens) (UniProt P46734).
T1 sequence (whole entry): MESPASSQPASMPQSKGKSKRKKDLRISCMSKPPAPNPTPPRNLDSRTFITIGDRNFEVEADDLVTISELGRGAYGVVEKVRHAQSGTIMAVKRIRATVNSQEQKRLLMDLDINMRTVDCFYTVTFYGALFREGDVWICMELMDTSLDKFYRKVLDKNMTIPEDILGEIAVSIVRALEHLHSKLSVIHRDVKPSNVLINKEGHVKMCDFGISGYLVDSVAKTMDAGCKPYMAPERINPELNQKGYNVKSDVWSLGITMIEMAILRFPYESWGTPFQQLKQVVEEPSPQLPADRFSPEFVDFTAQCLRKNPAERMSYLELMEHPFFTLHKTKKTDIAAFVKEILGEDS
In words: Inhibition of human MAP2K3 in HL-60 cells lysate assessed as reduction of labeling of acyl-phosphate ATP probe at 100 nM. In kind it is cell-free.

The test system of assay [7] is HL-60. In words: Inhibition of human MAP3K5/MAP3K6/MAP3K7 in HL-60 cells lysate assessed as reduction of labeling of acyl-phosphate ATP probe at 100 nM.
Assay [8] has as its target Interleukin-1 receptor-associated kinase 1 (Homo sapiens) (UniProt P51617). In words: Inhibition of human IRAK1 in HL-60 cells lysate assessed as reduction of labeling of acyl-phosphate ATP probe at 100 nM. In kind it is cell-free.
Assay [9] deals with HL-60. Nature of the assay: Inhibition of human PITSLRE in HL-60 cells lysate assessed as reduction of labeling of acyl-phosphate ATP probe at 100 nM.
In assay [10] the target is T2, Inhibitor of nuclear factor kappa-B kinase subunit beta (Homo sapiens) (UniProt O14920).
T2 sequence (whole entry): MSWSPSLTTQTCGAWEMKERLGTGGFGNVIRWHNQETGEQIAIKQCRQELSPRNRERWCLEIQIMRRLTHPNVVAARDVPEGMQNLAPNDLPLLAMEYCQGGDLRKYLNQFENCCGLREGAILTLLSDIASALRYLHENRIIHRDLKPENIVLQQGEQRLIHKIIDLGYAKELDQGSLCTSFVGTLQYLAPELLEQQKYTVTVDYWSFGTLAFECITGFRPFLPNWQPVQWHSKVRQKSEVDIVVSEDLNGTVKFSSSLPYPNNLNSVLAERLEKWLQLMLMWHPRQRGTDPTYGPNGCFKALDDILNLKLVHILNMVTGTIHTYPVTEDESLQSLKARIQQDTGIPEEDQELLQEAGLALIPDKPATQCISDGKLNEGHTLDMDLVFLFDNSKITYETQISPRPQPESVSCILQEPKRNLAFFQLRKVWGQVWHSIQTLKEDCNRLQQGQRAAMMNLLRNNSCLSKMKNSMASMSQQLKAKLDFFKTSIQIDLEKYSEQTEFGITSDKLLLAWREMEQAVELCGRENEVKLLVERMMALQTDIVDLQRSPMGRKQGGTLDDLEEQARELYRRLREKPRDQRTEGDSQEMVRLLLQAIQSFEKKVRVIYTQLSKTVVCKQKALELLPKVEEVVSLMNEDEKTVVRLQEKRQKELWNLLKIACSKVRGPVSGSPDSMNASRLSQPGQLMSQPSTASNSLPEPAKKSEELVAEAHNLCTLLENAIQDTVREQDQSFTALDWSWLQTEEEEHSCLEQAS
In words: Inhibition of human IKK-beta in HL-60 cells lysate assessed as reduction of labelling of acyl-phosphate ATP probe at 100 nM. In kind it is cell-free.

Bounds are passed on as bounds.

Cyclin-dependent kinase 13 (Homo sapiens), sequence (Q14004 whole entry, looked up): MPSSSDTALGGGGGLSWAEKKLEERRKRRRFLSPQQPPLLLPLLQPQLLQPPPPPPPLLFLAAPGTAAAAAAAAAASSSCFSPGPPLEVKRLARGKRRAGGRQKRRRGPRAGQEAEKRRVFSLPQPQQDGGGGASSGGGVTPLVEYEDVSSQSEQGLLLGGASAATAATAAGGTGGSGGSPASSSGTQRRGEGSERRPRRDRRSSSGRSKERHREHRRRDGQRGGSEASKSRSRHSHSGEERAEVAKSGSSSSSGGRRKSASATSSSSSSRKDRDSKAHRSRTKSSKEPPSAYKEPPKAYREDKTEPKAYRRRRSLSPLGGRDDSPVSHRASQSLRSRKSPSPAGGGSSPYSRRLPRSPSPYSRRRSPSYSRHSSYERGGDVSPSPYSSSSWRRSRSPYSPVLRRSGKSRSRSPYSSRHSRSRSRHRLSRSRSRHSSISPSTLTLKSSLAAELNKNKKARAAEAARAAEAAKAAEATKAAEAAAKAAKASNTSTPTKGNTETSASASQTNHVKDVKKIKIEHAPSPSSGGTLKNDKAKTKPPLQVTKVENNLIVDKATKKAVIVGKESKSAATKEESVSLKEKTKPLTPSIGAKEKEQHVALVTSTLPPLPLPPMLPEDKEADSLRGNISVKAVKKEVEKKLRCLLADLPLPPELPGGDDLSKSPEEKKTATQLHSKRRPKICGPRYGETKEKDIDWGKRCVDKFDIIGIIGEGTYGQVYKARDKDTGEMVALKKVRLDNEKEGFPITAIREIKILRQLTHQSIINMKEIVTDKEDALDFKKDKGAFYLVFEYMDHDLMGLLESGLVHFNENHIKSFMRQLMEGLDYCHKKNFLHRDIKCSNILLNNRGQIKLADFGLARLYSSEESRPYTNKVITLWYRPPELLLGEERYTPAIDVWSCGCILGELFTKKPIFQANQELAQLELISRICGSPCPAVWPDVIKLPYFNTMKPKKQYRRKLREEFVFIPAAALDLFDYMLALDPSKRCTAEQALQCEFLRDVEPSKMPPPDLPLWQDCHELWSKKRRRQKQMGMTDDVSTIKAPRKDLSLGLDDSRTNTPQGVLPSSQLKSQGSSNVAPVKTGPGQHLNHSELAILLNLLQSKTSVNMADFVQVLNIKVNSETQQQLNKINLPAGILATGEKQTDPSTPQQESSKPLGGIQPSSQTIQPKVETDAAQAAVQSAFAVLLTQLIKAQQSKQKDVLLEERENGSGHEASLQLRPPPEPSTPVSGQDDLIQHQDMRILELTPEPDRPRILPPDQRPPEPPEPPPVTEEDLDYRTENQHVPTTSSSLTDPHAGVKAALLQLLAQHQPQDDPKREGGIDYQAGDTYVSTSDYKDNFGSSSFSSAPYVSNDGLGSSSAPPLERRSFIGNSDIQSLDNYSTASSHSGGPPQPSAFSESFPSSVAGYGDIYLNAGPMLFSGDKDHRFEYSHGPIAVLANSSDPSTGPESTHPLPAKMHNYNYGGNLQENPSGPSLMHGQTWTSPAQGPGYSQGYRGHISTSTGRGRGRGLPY
Interleukin-1 receptor-associated kinase 1 (Homo sapiens), sequence (P51617 whole entry, looked up): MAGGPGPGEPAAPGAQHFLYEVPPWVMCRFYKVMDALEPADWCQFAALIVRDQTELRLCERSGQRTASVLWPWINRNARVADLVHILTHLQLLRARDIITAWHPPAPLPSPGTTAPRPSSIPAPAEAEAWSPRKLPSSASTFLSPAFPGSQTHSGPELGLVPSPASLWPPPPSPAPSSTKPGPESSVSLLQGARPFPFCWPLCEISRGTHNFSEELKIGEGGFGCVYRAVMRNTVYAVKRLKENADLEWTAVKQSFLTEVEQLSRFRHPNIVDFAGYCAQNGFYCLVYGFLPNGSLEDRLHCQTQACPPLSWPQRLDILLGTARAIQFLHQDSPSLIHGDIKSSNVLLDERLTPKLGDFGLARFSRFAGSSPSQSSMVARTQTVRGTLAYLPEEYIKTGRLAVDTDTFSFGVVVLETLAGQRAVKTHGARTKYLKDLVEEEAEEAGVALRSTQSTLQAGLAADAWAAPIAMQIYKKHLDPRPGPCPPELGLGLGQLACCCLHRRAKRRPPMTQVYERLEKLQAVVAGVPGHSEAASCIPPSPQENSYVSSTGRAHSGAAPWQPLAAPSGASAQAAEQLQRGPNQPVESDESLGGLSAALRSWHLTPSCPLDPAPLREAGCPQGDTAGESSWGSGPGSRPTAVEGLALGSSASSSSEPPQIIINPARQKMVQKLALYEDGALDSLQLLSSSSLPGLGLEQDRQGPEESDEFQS
Tyrosine-protein kinase BTK (Homo sapiens), sequence (Q06187 whole entry): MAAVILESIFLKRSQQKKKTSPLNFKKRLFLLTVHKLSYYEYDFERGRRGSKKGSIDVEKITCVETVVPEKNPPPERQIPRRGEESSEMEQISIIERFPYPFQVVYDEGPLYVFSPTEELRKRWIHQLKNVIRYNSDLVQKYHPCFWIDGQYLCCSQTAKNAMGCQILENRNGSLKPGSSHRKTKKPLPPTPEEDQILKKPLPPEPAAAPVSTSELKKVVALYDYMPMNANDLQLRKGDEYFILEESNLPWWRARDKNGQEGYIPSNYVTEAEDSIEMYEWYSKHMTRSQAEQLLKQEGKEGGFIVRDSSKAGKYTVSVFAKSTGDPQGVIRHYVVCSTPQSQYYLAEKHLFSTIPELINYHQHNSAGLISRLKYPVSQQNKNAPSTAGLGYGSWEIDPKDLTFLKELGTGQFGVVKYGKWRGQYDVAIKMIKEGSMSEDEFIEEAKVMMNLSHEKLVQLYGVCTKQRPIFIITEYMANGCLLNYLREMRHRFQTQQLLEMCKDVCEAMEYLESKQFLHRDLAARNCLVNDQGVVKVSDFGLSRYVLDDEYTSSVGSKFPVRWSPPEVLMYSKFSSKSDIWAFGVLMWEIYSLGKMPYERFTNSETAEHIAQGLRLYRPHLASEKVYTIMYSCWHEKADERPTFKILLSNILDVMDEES
Glycogen synthase kinase-3 beta, sequence (P49841 whole entry): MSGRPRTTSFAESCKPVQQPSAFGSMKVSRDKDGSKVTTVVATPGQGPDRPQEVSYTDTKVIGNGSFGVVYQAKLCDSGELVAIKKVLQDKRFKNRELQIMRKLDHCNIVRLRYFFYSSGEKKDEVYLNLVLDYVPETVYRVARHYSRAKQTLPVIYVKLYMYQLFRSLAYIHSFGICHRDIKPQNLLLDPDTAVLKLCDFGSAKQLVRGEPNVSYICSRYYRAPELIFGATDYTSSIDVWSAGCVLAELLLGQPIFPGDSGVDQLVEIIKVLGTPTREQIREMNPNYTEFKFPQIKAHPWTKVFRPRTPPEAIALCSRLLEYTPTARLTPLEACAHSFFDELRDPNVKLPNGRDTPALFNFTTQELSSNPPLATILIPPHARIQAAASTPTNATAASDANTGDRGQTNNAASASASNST

What is called inhibition is the relative decrease from the control value, in per cent. As usually defined, the IC50 is the point on the concentration scale where inhibition reaches its midpoint. Lower therefore signals greater potency in that assay. Consider `C[C@H]1COc2c(NCCCc3ccccn3)c(F)c(N)c3c(=O)c(C#N)cn1c23`, for which the inhibition at 0.1 µM with HL-60 [1], in the assay with HL-60 [4], in the assay with HL-60 [7] and in the assay with HL-60 [9] was less than 35% in each case. This compound also had a 50% inhibitory concentration (IC50) in assay [2] of 0.6 nM. The inhibition in [3], in assay [5], in assay [6], in assay [8] and in assay [10] was less than 35% throughout.

Consider `C[C@H]1COc2c(NCCCc3ccccn3)c(F)c(N)c3c(=O)c(C(=O)O)cn1c23`, for which the inhibition at 0.1 µM in the assay with HL-60 [1], in the assay on HL-60 [4], in the assay with HL-60 [7] and with HL-60 [9] was less than 35% each time. Besides, the midpoint of inhibition in assay [2], the IC50, lay at 10 nM. Further, the inhibition in assay [3], in [5], in assay [6], in assay [8] and in [10] was less than 35% each time.

With `C[C@H]1COc2c(NCCCn3cccn3)c(F)c(N)c3c(=O)c(C(=O)O)cn1c23`, the inhibition at 0.1 µM in the assay on HL-60 [1], with HL-60 [4], with HL-60 [7] and in the assay on HL-60 [9] was less than 35% each time. In assay [2], this compound had a 50% inhibitory concentration (IC50) of 16 nM. The inhibition in [3], in [5], in [6], in [8] and in [10] was less than 35% in each case.

In the case of `C[C@H]1COc2c(NCCCn3cccn3)c(F)c(N)c3c(=O)c(C#N)cn1c23`, the inhibition at 0.1 µM with HL-60 [1], with HL-60 [4], in the assay with HL-60 [7] and with HL-60 [9] was less than 35% in each case. Moreover, in assay [2], the concentration for half-maximal inhibition (IC50) turned out to be 0.86 nM. In addition, the inhibition in assay [3], in [5], in assay [6], in assay [8] and in [10] was less than 35% throughout.

The values are drawn from ChEMBL document CHEMBL1938230, “6-Position optimization of tricyclic 4-quinolone-based inhibitors of glycogen synthase kinase-3β: discovery of nitrile derivatives with picomolar potency” (Bioorg Med Chem Lett, 2012).
